US7635693B2, “Methods for preventing and treating cancer using N-thiolated β-lactam compounds and analogs thereof” (University of South Florida, priority 2002, dated 2009)
Where “and” joins values, the source holds several entries; their conditions need not be identical. Equal entries are not always repeated. Where two headings read alike, the source gives them in different places.

Key:
MCF-7 cells [1] = assay: MTT assay, MCF-7; assay type: cell-based, human; details: MCF-7, 50 μM, 24 hours
Experimental: (§1) MCF-7, MDA-MB-231, PC-3 and PCI-13 cells were grown to 50% confluency in a 24 well plate. […] A stock 5 mg/ml of MTT in serum-free media was then added to the cell cultures at a final concentration of 1 mg/ml, followed by a 3 hour incubation at 37° C. After cells crystallized, the media was removed and DMSO added to dissolve the metabolized MTT product. The absorbance was then measured on a Wallac Victor 1420 Multilabel counter at […].

MDA-MB-231 cells [2] = assay: MTT assay, MDA-MB-231; assay type: cell-based, human; details: MDA-MB-231, 50 μM, 24 hours
Experimental: as §1

WI-38 cells = details: 50 μM
Experimental: (§2) (FIG. 19A) MTT assay. (FIG. 19B) Cell-free caspase-9 activity assay. A protein extract (20 μg) is incubated with 20 μM Ac-LEHD-AFC (the specific caspase-9 substrate) in a 96-well plate at 37° C. for 2 h. After incubation, the liberated florescent AFC groups are measured by Wallac Victor 1420 Multilabel counter with 405/535 nm filters. […] Both intact and active forms of caspase-3 are indicated. […] Both detached and attached populations of Va-13 or WI-38 cells are collected, and used for nuclear staining assay with DNA staining dye Hoechst 33342.
(§3) To assay nuclear morphology, both the detached or remaining attached solid tumor cells were washed with PBS, fixed with 70% ethanol for 1 hour, and stained with Hoechst 33342 (50 μM) for 30 minutes. The nuclear morphology of cells was visualized by a fluorescence microscope.

VA-13 cells = details: detached VA-13 cells, 50 μM
Experimental: as §2, §3

Jurkat T cells [3] = details: 50 μM, cited from earlier work
MDA-MB-231 cells [4] = details: MDA-MB-231, 50 μM, 48 hour
Experimental: as §3
(§4) Both attached and detached cell populations were then used for detection of apoptotic nuclear changes.

PCI-13 cells = details: PCI-13, 50 μM, 48 hour
Experimental: as §3, §4

PC-3 cells = details: PC-3, 50 μM, 48 hour
Experimental: as §3, §4

MCF-7 cells [5] = details: MCF-7, 50 μM, 24 hour
Experimental: as §3, §4

PARP = details: YT cells
Experimental: Human Jurkat T cells and human prostate cancer LNCaP cells were cultured in RPMI 1640 medium, supplemented with 10% fetal bovine serum, 100 units/ml penicillin, and 100 μg/ml streptomycin. Human YT cells were cultured in RPMI 1640 medium supplemented with 1 mM MEM sodium pyruvate solution, 0.1 mM MEM non-essential amino acids solution, 10% fetal bovine serum, 100 units/ml penicillin, and 100 μg/ml streptomycin. All cell lines were maintained at 37° C. in a humidified incubator with an atmosphere of 5% CO2. […] Briefly, cells were harvested, washed with PBS and homogenized in a lysis buffer (50 mM Tris-HCl, pH 8.0, 5 mM EDTA, 150 mM NaCl, 0.5% NP-40, 0.5 mM phenylmethylsulfonyl fluoride, and 0.5 mM dithiothreitol) for 30 min at 4° C. Afterwards, the lysates were centrifuged at 12000×g for 15 min at 4° C. and the supernatants collected as whole-cell extracts. Equal amounts of protein extract (60 μg) were resolved by SDS-polyacrylamide gel electrophoresis and transferred to a nitrocellulose membrane (Schleicher & Schuell, Keene, N. H.) using a Semi-Dry Transfer System (Bio-Rad, Hercules, Calif.). The enhanced chemiluminescence Western blot analysis was then performed using specific antibodies to the proteins of interest.

BID = details: Jurkat T cells, 50 μM
Experimental: Human Jurkat T cells were cultured in RPMI 1640, supplemented with 10% fetal calf serum, 100 units/ml of penicillin and 100 μg/ml of streptomycin. Human breast cancer MCF-7 and MDA-MB-231 cells, human prostate cancer PC-3 cells, and human head-and-neck cancer PCI-13 cells were grown in Dulbecco's modified Eagle's medium containing 10% fetal calf serum, penicillin and streptomycin. All the cell lines were maintained in a 5% CO2 atmosphere at 37° C. A whole cell extract was prepared as described previously (An et al., 1998). Briefly, cells are harvested, washed with PBS and homogenized in a lysis buffer (50 mM Tris-HCl, pH 8.0, 5 mM EDTA, 150 mM NaCl, 0.5% NP-40, 0.5 mM PMSF, and 0.5 mM dithiothreitol) for 30 min at 4° C. After that, the lysates are centrifuged at 14,000×g for 30 min and the supernatants are collected as whole cell extracts. Equal amounts of protein extract (50 μg) are resolved by SDS-polyacrylamide gel electrophoresis and then transferred to a nitrocellulose membrane (Schleicher & Schuell, Keene, N H) using a Semi-Dry Transfer System (BIO-RAD; Hercules, Calif.). The enhanced chemiluminescence (ECL) Western Blot analysis is then performed using specific antibodies to the proteins of interest.

Jurkat T cells [6] = assay type: cell-based, human; details: for loss of membrane permeability (trypan blue incorporation): 8 hours
Experimental: The trypan blue exclusion assay was performed by injecting 10 μl of cell suspension containing 0.2% trypan blue dye into a hemoicytometer and counting. Numbers of cells that absorbed the dye and those that excluded the dye are counted, from which the percentage of non-viable cell number to total cell number is calculated.

COC1C(=O)N(SC)C1c1ccccc1Cl (racemic) [lactam 1]
decrease of cellular viability (MTT) (MCF-7 cells [1]): 80%
decrease of cellular viability (MTT) (MDA-MB-231 cells [2]): 80%
nuclear morphology (Hoechst 33342) (WI-38 cells): remained attached with normal nuclei
nuclear morphology (Hoechst 33342) (VA-13 cells): apoptotic nuclear condensation and fragmentation
sub-G1 population (Jurkat T cells [3]; 12 h (Smith et al., 2002)): 10%
sub-G1 population (Jurkat T cells [3]; 24 h (Smith et al., 2002)): 16%
nuclear morphology of detached cells (Hoechst 33342) (MDA-MB-231 cells [4]): apoptosis-specific nuclear morphology
nuclear morphology of detached cells (Hoechst 33342) (PCI-13 cells): apoptosis-specific nuclear morphology
nuclear morphology of detached cells (Hoechst 33342) (PC-3 cells): apoptosis-specific nuclear morphology
cells detached (MCF-7 cells [5]): ~50%
nuclear morphology of detached cells (Hoechst 33342) (MCF-7 cells [5]): typical apoptotic nuclear condensation and fragmentation
PARP cleavage (PARP; 30 μM, 3, 6, or 24 h): no PARP cleavage was observed
PARP cleavage (PARP; at even 50 μM, 24 h): no PARP cleavage was detectable
time at which 15-kDa fragment of Bid was first observed (BID): 2 h
time of peak of 15-kDa fragment of Bid (BID): 6 h
cell death (trypan blue) (Jurkat T cells [6]; 30 μM, 24 h): 42%
cell death (trypan blue) (Jurkat T cells [6]; 50 μM, 3 h): 11%
non-viable cell population (trypan blue) (Jurkat T cells [6]; 50 μM, 4 hours): 20%
trypan blue-positive cells (Jurkat T cells [6]; 50 μM, 6 h): 20%
non-viable cell population / cell death (trypan blue) (Jurkat T cells [6]; 50 μM, 24 h): 60% and ~52% and ~50%
loss of membrane permeability (trypan blue incorporation) (Jurkat T cells [6]; 50 μM): ~30%
loss of membrane permeability (trypan blue incorporation) (Jurkat T cells [6]; 60 μM): ~80%
loss of membrane permeability (trypan blue incorporation) (Jurkat T cells [6]; 20-40 μM): ~10%
